# Species: Rattus norvegicus
# Test: Open TG-GATES - Regimen: Single
# Type: toxicity, organism-based, Sprague-Dawley
# Parameters: regimen Single, gender Male, age 6 weeks
# Settings: in vivo, po, route gavage; for TC / TG / TP / gamma-GTP / A/G / ALP / ALT / AST / BUN / CRE / Ca / Cl / GLC / IP / K / LDH / Na / PL / RALB: tissue Plasma; for APTT / Bas / Eos / Fbg / Hb / Ht / Lym / MCH / MCHC / MCV / Mono / Neu / PT / Plat / RBC / Ret / WBC: tissue Blood; for KIDNEY_L / KIDNEY_R / KIDNEY_TOTAL: tissue Kidney; for LIVER: tissue Liver
# [1] = 300 mg/kg, 24 h, dose level Low
# [2] = 1000 mg/kg, 3 h, dose level Middle
# [3] = 1000 mg/kg, 6 h, dose level Middle
# [4] = 1000 mg/kg, 9 h, dose level Middle
# [5] = 1000 mg/kg, 24 h, dose level Middle
structure (smiles),measurement,setting,value
O=C(O)c1ccccc1Nc1ccccc1 [FENAMIC ACID],TC,[1],74.8 mg/dL
same,TG,[1],88 mg/dL
same,TP,[1],5.6 g/dL
same,gamma-GTP,[1],1 IU/L
same,TERMINAL_BW,[2],208.9 g
same,APTT,[2],17.2 s
same,Bas,[2],0.8%
same,Eos,[2],0.6%
same,Fbg,[2],253.8 mg/dL
same,Hb,[2],13.4 g/dL
same,Ht,[2],40.2%
same,Lym,[2],71.4%
same,MCH,[2],20.5 pg
same,MCHC,[2],33.5%
same,MCV,[2],61.1 fL
same,Mono,[2],2.8%
same,Neu,[2],24.4%
same,PT,[2],14.1 s
same,Plat,[2],115 x10_4/uL
same,RBC,[2],657.4 x10_4/ul
same,Ret,[2],8%
same,WBC,[2],93.3 x10_2/uL
same,KIDNEY_L,[2],0.9 g
same,KIDNEY_R,[2],0.9 g
same,KIDNEY_TOTAL,[2],1.8 g
same,LIVER,[2],7.8 g
same,A/G,[2],0.9
same,ALP,[2],1837.8 IU/L
same,ALT,[2],38.4 IU/L
same,AST,[2],75.4 IU/L
same,BUN,[2],9.6 mg/dL
same,CRE,[2],0.1 mg/dL
same,Ca,[2],11 mg/dL
same,Cl,[2],105.2 meq/L
same,GLC,[2],169.2 mg/dL
same,IP,[2],10.3 mg/dL
same,K,[2],4 meq/L
same,LDH,[2],71.8 IU/L
same,Na,[2],144 meq/L
same,PL,[2],96.4 mg/dL
same,RALB,[2],2.5 g/dL
same,TC,[2],49 mg/dL
same,TG,[2],37 mg/dL
same,TP,[2],5.4 g/dL
same,gamma-GTP,[2],1 IU/L
same,TERMINAL_BW,[3],203 g
same,APTT,[3],17 s
same,Bas,[3],0.8%
same,Eos,[3],1%
same,Fbg,[3],286.4 mg/dL
same,Hb,[3],13.7 g/dL
same,Ht,[3],40.4%
same,Lym,[3],66.6%
same,MCH,[3],21.2 pg
same,MCHC,[3],34%
same,MCV,[3],62.4 fL
same,Mono,[3],3.2%
same,Neu,[3],28.8%
same,PT,[3],14.4 s
same,Plat,[3],112.9 x10_4/uL
same,RBC,[3],646.6 x10_4/ul
same,Ret,[3],7.7%
same,WBC,[3],98.8 x10_2/uL
same,KIDNEY_L,[3],0.9 g
same,KIDNEY_R,[3],0.9 g
same,KIDNEY_TOTAL,[3],1.8 g
same,LIVER,[3],7.4 g
same,A/G,[3],0.9
same,ALP,[3],1734.6 IU/L
same,ALT,[3],37 IU/L
same,AST,[3],77.6 IU/L
same,BUN,[3],11.4 mg/dL
same,CRE,[3],0.1 mg/dL
same,Ca,[3],11.1 mg/dL
same,Cl,[3],107 meq/L
same,GLC,[3],128.4 mg/dL
same,IP,[3],10.8 mg/dL
same,K,[3],3.9 meq/L
same,LDH,[3],73.4 IU/L
same,Na,[3],146.2 meq/L
same,PL,[3],105.6 mg/dL
same,RALB,[3],2.7 g/dL
same,TC,[3],53 mg/dL
same,TG,[3],37 mg/dL
same,TP,[3],5.8 g/dL
same,gamma-GTP,[3],1.2 IU/L
same,TERMINAL_BW,[4],207.8 g
same,APTT,[4],14.8 s
same,Bas,[4],0.4%
same,Eos,[4],0.8%
same,Fbg,[4],281 mg/dL
same,Hb,[4],13.9 g/dL
same,Ht,[4],41.1%
same,Lym,[4],61.8%
same,MCH,[4],21.2 pg
same,MCHC,[4],33.8%
same,MCV,[4],62.8 fL
same,Mono,[4],3%
same,Neu,[4],33.8%
same,PT,[4],14.6 s
same,Plat,[4],111.6 x10_4/uL
same,RBC,[4],655.6 x10_4/ul
same,Ret,[4],8.2%
same,WBC,[4],80.5 x10_2/uL
same,KIDNEY_L,[4],1 g
same,KIDNEY_R,[4],0.9 g
same,KIDNEY_TOTAL,[4],1.9 g
same,LIVER,[4],7.4 g
same,A/G,[4],0.9
same,ALP,[4],1965.8 IU/L
same,ALT,[4],44.6 IU/L
same,AST,[4],75.4 IU/L
same,BUN,[4],13.8 mg/dL
same,CRE,[4],0.1 mg/dL
same,Ca,[4],11.1 mg/dL
same,Cl,[4],107.8 meq/L
same,GLC,[4],142 mg/dL
same,IP,[4],10.9 mg/dL
same,K,[4],4 meq/L
same,LDH,[4],68.6 IU/L
same,Na,[4],146.2 meq/L
same,PL,[4],102.8 mg/dL
same,RALB,[4],2.6 g/dL
same,TC,[4],45.8 mg/dL
same,TG,[4],29 mg/dL
same,TP,[4],5.7 g/dL
same,gamma-GTP,[4],1 IU/L
same,TERMINAL_BW,[5],210.6 g
same,APTT,[5],14.3 s
same,Bas,[5],0.8%
same,Eos,[5],0.8%
same,Fbg,[5],388 mg/dL
same,Hb,[5],13.5 g/dL
same,Ht,[5],40.1%
same,Lym,[5],70.6%
same,MCH,[5],21.3 pg
same,MCHC,[5],33.8%
same,MCV,[5],62.9 fL
same,Mono,[5],3%
same,Neu,[5],24.8%
same,PT,[5],15 s
same,Plat,[5],114.1 x10_4/uL
same,RBC,[5],637.8 x10_4/ul
same,Ret,[5],7.1%
same,WBC,[5],120.4 x10_2/uL
same,KIDNEY_L,[5],1 g
same,KIDNEY_R,[5],1 g
same,KIDNEY_TOTAL,[5],2 g
same,LIVER,[5],8.4 g
same,A/G,[5],0.9
same,ALP,[5],2284.2 IU/L
same,ALT,[5],41.2 IU/L
same,AST,[5],66 IU/L
same,BUN,[5],16.4 mg/dL
same,CRE,[5],0.2 mg/dL
same,Ca,[5],11.4 mg/dL
same,Cl,[5],106.2 meq/L
same,GLC,[5],164.6 mg/dL
same,IP,[5],8.5 mg/dL
same,K,[5],3.7 meq/L
same,LDH,[5],142 IU/L
same,Na,[5],145.4 meq/L
same,PL,[5],104.6 mg/dL
same,RALB,[5],2.6 g/dL
same,TC,[5],47.4 mg/dL
same,TG,[5],46.2 mg/dL

# — ChEMBL document CHEMBL3885861, “Open TG-GATES”
